Data: US20090004145A1, “COMPOSITIONS AND METHODS INVOLVING GENE THERAPY AND PROTEASOME MODULATION” (priority 2006, published 2009)
In brackets after ≈: the same amount, converted by molar mass. Like-named read-outs stand apart in the source and are kept apart here. *1 amine or outer side, *2 acyl side, *3 side chain or, on linkers, in order; H or OH if unused. Where a SMILES comes first, the peptide text is derived from it. Bridges are numbered along the chain shown (N, C = ends). Roman numbers before positions name the chains, in order. [ ]: non-standard residue; d: D form. Actinocin(9to1) = Cc1c2oc3c(C)ccc(C(=O)[*:1])c3nc-2c(C(=O)[*:2])c(N)c1=O; NMeV = CN[C@H](C(=O)O)C(C)C; Sar = CNCC(=O)O

Key:
[1] = in vivo; cited from earlier work
[2] = system: chronic myelogenous leukemia; conditions: adults with previously untreated chronic myelogenous leukemia; cited from earlier work
[3] = system: 2008 cells; assay: XTT cell viability assay of CDDP-treated ovarian cancer cell lines; format: cell-based, human; conditions: CDDP 1 h, then 72 h incubation
Protocol: (§1) FIG. 1. Determination of IC50 values for CDDP-Treated Ovarian Cancer Cell Lines. Human ovarian tumor (2008 and 2008/C*13R) tumor cells (2×10^3) seeded in 96-well plates were treated with various doses of CDDP (0, 10, 20, 30, 60, 80, 100 μM). After 1 h of treatment, CDDP containing medium was removed and fresh medium added to the wells. Cells were incubated for 72 h following which were subjected to XTT assay to determine cell viability. Untreated cells served as controls.
(§2) Determination of IC50 values for CDDP-Treated Ovarian Cancer Cell Lines. Human ovarian tumor (2008 and 2008/C*13R) tumor cells (2×10^3) seeded in 96-well plates were treated with various doses of CDDP (0, 10, 20, 30, 60, 80, 100 μM). After 1 h of treatment, CDDP containing medium was removed and fresh medium added to the wells. Cells were incubated for 72 h following which were subjected to XTT assay to determine cell viability. Untreated cells served as controls. […] (FIG. 1)

[4] = system: 2008/C*13R cells; assay: as above; format: cell-based, human; conditions: CDDP 1 h, then 72 h incubation
Protocol: as §1, §2

[5] = in vivo; cited from earlier work; remark: listed apart in the source
[6] = system: 2008 cells; assay: Tumor cell killing, trypan blue assay; format: cell-based, human; conditions: CDDP 25 μM, vector 3000 vp/cell, 72 h
Protocol: FIG. 3. Ad-mda7 plus CDDP treatment sensitizes CDDP-resistant tumor cells. CDDP-resistant (2008/C*13 R) and sensitive (2008) ovarian tumor cells were plated in six-well plates and treated with PBS, CDDP (25 μM) Ad-luc, Ad-mda7 (3000 vp/cell), Ad-mda7 plus CDDP or Ad-luc plus CDDP. Treatment schedule was as follows: pretreatment with CDDP for 1 h, washed with PBS to remove any residual CDDP and then infect with Ad-mda7 for 3 h in serum free medium followed by replenishment of complete medium. Cells were harvested at 72 h after treatment and number of dead cells counted by the trypan blue assay.
FIG. 8. CDDP-resistant tumor cells are more sensitive to Ad-mda7. […] Cells were harvested on day 3 and day 5 after treatment and number of dead cells counted by the trypan blue assay and analyzed for apoptotic markers by western blotting. […]
Next, CDDP-resistant (2008/C*13 R) and sensitive (2008) ovarian tumor cells were plated in six-well plates and treated with PBS, CDDP (25 μM) Ad-luc, Ad-mda7 (3000 vp/cell), Ad-mda7 plus CDDP or Ad-luc plus CDDP. […] Cells were harvested at 72 h after treatment and number of dead cells counted by the trypan blue assay.
CDDP-Resistant Tumor Cells are More Sensitive to Ad-mda7. […] Cells were harvested on day 3 and day 5 after treatment and number of dead cells counted by the trypan blue assay and analyzed for apoptotic markers by western blotting. […]

[7] = cited from earlier work
[8] = 15 minutes after intravenous administration; cited from earlier work
[9] = system: multiple myeloma; conditions: oral administration; cited from earlier work
[10] = humans, intravenous administration; cited from earlier work
[11] = system: Hodgkin's disease; conditions: cited from earlier work
[12] = usual clinical doses; cited from earlier work
[13] = cited from earlier work; remark: listed apart in the source
[14] = mice; cited from earlier work

Cc1c2oc3c(C)ccc(C(=O)N[C@@H]4C(=O)N[C@H](C(C)C)C(=O)N5CCC[C@H]5C(=O)N(C)CC(=O)N(C)[C@@H](C(C)C)C(=O)O[C@@H]4C)c3nc-2c(C(=O)N[C@@H]2C(=O)N[C@H](C(C)C)C(=O)N3CCC[C@H]3C(=O)N(C)CC(=O)N(C)[C@@H](C(C)C)C(=O)O[C@@H]2C)c(N)c1=O [Actinomycin D] (I: T[dV]P[Sar][NMeV] / II: T[dV]P[Sar][NMeV]; ester I:1-I:C, II:1-II:C; linker I:N-II:N via Actinocin(9to1))
passage of the blood-brain barrier [1]: does not pass the blood-brain barrier

CS(=O)(=O)OCCCCOS(C)(=O)=O [Busulfan, 1,4-butanediol dimethanesulfonate]
patients obtaining hematologic remission [2]: Approximately 90%

[NH2][Pt]([NH2])([Cl])[Cl] [CDDP, Cisplatin]
IC50 [3]: 30 µM
IC50 [4]: 145 µM
oral absorption [5]: not absorbed orally
percent killing [6]: similar

CC[C@@]1(O)C(=O)OCc2c1cc1n(c2=O)Cc2cc3ccccc3nc2-1 [Camptothecin]
solubility (clear yellow solution) ([7]; camptothecin in DMSO 1N sodium hydroxide): 50 mg/mL (≈ 144 mM)
storage stability ([7]; camptothecin, 2-8° C., dry, airtight, light-resistant): at least two
water solubility ([7]; camptothecin): poor water-solubility

O=NN(CCCl)C(=O)NCCCl [Carmustine, 1,3bis-(2-chloroethyl)-1-nitrosourea]
solubility in water ([7]; carmustine): poorly soluble

O=NN(CCCl)C(=O)NC1CCCCC1 [Lomustine, 1-(2-chloro-ethyl)-3-cyclohexyl-1 nitrosourea]
tissue levels [8]: comparable to plasma levels
ionization at a physiological pH ([7]; lomustine): relatively unionized
solubility in 10% ethanol ([7]; lomustine): 0.05 mg per ml
solubility in absolute alcohol ([7]; lomustine): 70 mg per ml
solubility in water ([7]; lomustine): < 0.05 mg per ml

N[C@@H](Cc1ccc(N(CCCl)CCCl)cc1)C(=O)O [Melphalan, 4-[bis(2-chloroethyl)amino]-L-phenylalanine]
solubility in water ([7]; melphalan): insoluble in water
patients showing a favorable response [9]: about one third to one half

CO[C@@]12[C@H](COC(N)=O)C3=C(C(=O)C(C)=C(N)C3=O)N1C[C@@H]1N[C@@H]12 [Mitomycin]
clearance from the serum [10]: rapidly cleared
heat stability ([7]; mitomycin): heat stable

CC[C@]1(O)C[C@@H]2CN(CCc3c([nH]c4ccccc34)[C@@](C(=O)OC)(c3cc4c(cc3OC)N(C)[C@H]3[C@@](O)(C(=O)OC)[C@H](OC(C)=O)[C@]5(CC)C=CCN6CC[C@]43[C@@H]65)C2)C1 [Vinblastine]
cases with significant improvement [11]: 50 to 90%

CC[C@]1(O)C[C@H]2CN(CCc3c([nH]c4ccccc34)[C@@](C(=O)OC)(c3cc4c(cc3OC)N(C=O)[C@H]3[C@@](O)(C(=O)OC)[C@H](OC(C)=O)[C@]5(CC)C=CCN6CC[C@]43[C@@H]65)C2)C1 [Vincristine]
peak concentration in plasma [12]: approximately 0.4 mM

Bleomycin
administered dose recovered in the urine as active bleomycin ([13]; humans): 60% to 70
plasma or serum terminal elimination half-life ([13]; patients with creatinine clearance <35 mL per minute, as clearance decreases): increases exponentially
concentrations in hematopoietic tissue / bone marrow [14]: low concentrations
concentrations in skin, lungs, kidneys, peritoneum and lymphatics [14]: high concentrations
solubility in water ([7]; bleomycin): freely soluble in water
